The target in one test is Aβ1-42 (Homo sapiens, UniProt P05067). The test can be described thus: FRET assay of Aβ1-42 oligomer (ADDL) assembly. It counts as biochemical. The conditions noted are these: for IC50: FRET assay of Example 1, formation of neurotoxic ADDLs. An excerpt: Fluorescence (or Förster) Resonance Energy Transfer (FRET) is a distance-dependent, non-radiative transfer of energy in which the de-excitation of one fluorophore (donor) is coupled to excitation of another fluorophore (acceptor). FRET occurs if (1) the quantum of energy emitted by a donor fluorophore corresponds to an acceptor fluorophore's excitation energy, (2) the orientations of donor and acceptor transition dipoles are nearly parallel and (3) the donor fluorescent emission spectrum overlaps the acceptor absorption spectrum.
Sequence of Aβ1-42 (P05067 672-713 limits assumed): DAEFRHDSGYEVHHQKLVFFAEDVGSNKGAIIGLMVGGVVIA
In this assay, Aβ1-42 oligomer formation is monitored by FRET using N-terminal conjugates of fluorescein-Aβ1-42 as both the donor and acceptor fluorophore (fluorescein-fluorescein Ro˜45 Å). […] Inhibition of Aβ1-42 assembly is observed as the absence or attenuation of fluorescein quenching.
FRET and FP assays are performed in 384-well Corning Non-Binding Surface, black, opaque microtiter plates, and the assay buffer consists of 50 mM MOPS-Tris (pH 8.0) with 100 mM MgCl2. The assay volume, containing 0.2 μM FITC-Aβ(1-42) and 0.8 μM Aβ(1-42), is 50 μl and the temperature is 37° C. ADDL assembly is monitored on a Tecan GENios Pro plate reader, exciting at a wavelength of 485 nm and detecting emission at a wavelength of 515 nm. Kinetic traces are collected by recording fluorescence intensity and polarization readings every five minutes over about three to about a six-hour time course. […] Positive control reactions contain all buffer components in the absence of added small molecule or antibody reagents. To test for ADDL assembly inhibition, the non-peptidic compound was incubated with the peptide mixture at six concentrations from about 30 μM decreasing to about 0.05 μM.
Test Compound A appears as compound 7 in Table 1.

The target in another test is T1, Aβ1-42 ADDLs (Homo sapiens, UniProt P05067).
T1 construct: Synthetic Aβ1-42 powder was dissolved in 1,1,1,3,3,3 hexafluorisopropanol (HFIP); host or cells: chemically synthesised peptide
T1 sequence (P05067 672-713 limits assumed): as above
The test can be described thus: Alternating Lever Cyclic Ratio (ALCR) rat model. It counts as in vivo. The conditions noted are these: for Approach Errors Mean / Perseveration Errors Mean: base line error rate equalized to 1.00; for error rates versus baseline: given alone. As for the experimental part:
Preparations of Aβ1-42 ADDLs and a potential therapeutic compounds under the Alternating Lever Cyclic Ratio (ALCR) rat model of AD were tested. This highly sensitive model has been able to detect cognitive deficits due to direct injection of cell-derived Aβ oligomers into rat brain. In this study, a direct injection of ADDLs made from synthetic Aβ1-42 and a putative therapeutic compound under the ALCR procedure were tested.
The ALCR test has proven to be much more sensitive than previously published methods for measuring drug effects on cognitive function. In this task, rats must learn a complex sequence of lever-pressing requirements in order to earn food reinforcement in a two-lever experimental chamber. Subjects must alternate between two levers by switching to the other lever after pressing the first lever enough to get food reward. The exact number of presses required for each food reward changes, first increasing from 2 responses per food pellet up to 56 presses per food pellet, then decreasing back to 2 responses per pellet. Intermediate values were based on the quadratic function, x^2−x. One cycle was an entire ascending and descending sequence of these lever press requirements (e.g., 2, 6, 12, 20, 30, 42, 56, 56, 42, 30, 20, 12, 6, and 2 presses per food reward). Six such full cycles were presented during each daily session.
Synthetic Aβ1-42 powder was dissolved in 1,1,1,3,3,3 hexafluorisopropanol (HFIP) to afford a solution of Aβ1-42 in HFIP of about 1 mM and allowed to incubate at ambient temperature for about 1 h. The resulting solution was chilled on ice for about 5-10 min, then aliquoted into eppendorf tubes to provide about 50 μl of solution per tube. The tubes were then placed in a chemical fume hood and allowed to stand overnight to allow the HFIP to evaporate under a slow stream of nitrogen. To removed final traces of HFIP, the tubes were subjected to two SpeedVac cycles of 15 min at room temperature and about 15 to 25 in Hg of vacuum. The resulting films of monomerized Aβ1-42 peptide were stored over desiccant at −80° C. until used.
A tube of monomerized Aβ1-42 peptide was warmed to room temperature and the Aβ1-42 peptide was dissolved in anhydrous DMSO to afford a peptide stock DMSO solution containing about 10 μM to about 100 μM Aβ1-42 peptide in DMSO.
2 μl of a 20 mM stock solution of test compound in anhydrous DMSO is added to 998 μl of neural basal media (phenol red free, Gibco 12348-017) to give a compound neural basal media solution containing 40 μM of test compound in neural basal media.
For the Aβ1-42 peptide only treatment, peptide stock DMSO solution is added to 37° C. neural basal to obtain the requisite Aβ1-42 peptide monomer concentration, provided that the maximum concentration of DMSO is 1% or less, and the tube is vortexed for 30 to 60 seconds, spun down briefly in a microfuge and incubated at 37° C. for 15 min prior to the start of injections.
For the Aβ1-42 peptide plus test compound treatment, peptide stock DMSO solution is added to 37° C. compound neural basal media solution to obtain the requisite Aβ1-42 peptide monomer concentration, provided that the maximum concentration of DMSO is 1% or less, and the tube is vortexed for 30 to 36 seconds, spun down briefly in a microfuge and incubated at 37° C. for 15 min prior to the start of injections.
For control injections, compound neural basal media solution is incubated at 37° C. for 15 min prior to the start of injections.
Rats: Rats were trained under ALCR until their error rates were stable. Once the rats were placed upon the final ALCR procedure, training sessions were conducted 7 days each week until the end of the study.
Surgery: All rats received a single 28 ga cannula, which was permanently affixed to the skull, and aimed at the lateral ventricle. Half the rats received cannula in the right ventricle and half received cannula in the left ventricle. Rats were allowed 5 days to recover from surgery before training resumed. […]

The conditions of test [1]: cited from earlier work.
The conditions of test [2]: cited from earlier work. This is another data set of the same source.
Setting [3] is: compound combined with Aβ1-42 ADDLs.
The mark [4] stands for this setting: injectate alone, 20 μl via ventricular cannula, tested about 3 hours after injection.

Results on seven compounds are retold here after patent US8962677B2, “Methods of restoring cognitive ability using non-peptidic compounds” (Acumen Pharmaceuticals, Inc., priority 2007, dated 2015).

What is called IC50 is the concentration that inhibits the measured activity by half. A higher IC50 goes with a need for much substance.

Regarding `CCOC(=O)c1c(NC(=O)C(=O)N/N=C/c2ccccc2O)sc2c1CCC(C)C2` (centres unmarked) [Compound 7, 2-{[1-(2-Hydroxyphenyl)-meth-(E)-ylidene-hydrazinooxalyl]-amino}-6-methyl-4,5,6,7-tetrahydro-benzo[b]thiophene-3-carboxylic acid ethyl ester], the “inhibition of Aβ1-42 oligomer assembly” value at Aβ1-42 (1 mM Aβ1-42 total monomer, 100 mM MgCl2, compound 0.05 to 3 mM (so in the source), FIG. 1) is “dose dependent inhibition of Aβ1-42 oligomer assembly”.
With `O=C(N/N=C/c1c(O)ccc2ccccc12)c1ccccc1O` [Compound 24, (E)-2-hydroxy-N′-((2-hydroxynaphthalen-1-yl)methylene)benzohydrazide], on Aβ1-42 ADDLs (combined with the requisite concentration of Aβ1-42 ADDLs), the “effect on ADDL-induced increase in Perseveration Errors” value is given as “eliminated the increase in Perseveration Errors”. Further, the “Approach Errors Mean” value on Aβ1-42 ADDLs (setting [3]) was found to be 1.00; on Aβ1-42 ADDLs (setting [4]), 0.96. Also, the “Perseveration Errors Mean” value on Aβ1-42 ADDLs (setting [3]) turned out to be 0.92; on Aβ1-42 ADDLs (setting [4]), 0.95. Moreover, the “error rates versus baseline” value at Aβ1-42 ADDLs is on record as “did not increase error rates”.
Compound `COc1ccc(NC(=O)C(=O)N2N=C(CCC(C)C)CC2(O)C(F)(F)F)cc1` (centres unmarked) [Compound 21, 2-(5-hydroxy-3-isopentyl-5-(trifluoromethyl)-4,5-dihydro-1H-pyrazol-1-yl)-N-(4-methoxyphenyl)-2-oxoacetamide] returned an IC50 on Aβ1-42 of 6.4 µM.
On to `Oc1c(I)cc(Cl)c2cccnc12` [Clioquinol], for which the “patients' cognitive ability” value in test [1] (compared to untreated patients) is “stabilize the patients' cognitive ability”. Besides, the “Aβ1-42 levels in plasma” value in test [1] (patients' plasma) is on record as “lower Aβ1-42 levels”.
Consider “Aβ1-42 ADDLs: ADDLs made from synthetic Aβ1-42; soluble, oligomeric, globular, non-fibrillar, neurotoxic Aβ1-42 peptides [reference compound]”, for which the “error rates versus baseline” value with Aβ1-42 ADDLs was “significantly increased Perseveration Error rate”. Besides, in the test with Aβ1-42 ADDLs (setting [4]), the “Approach Errors Mean” value was found to be 1.02 and the “Perseveration Errors Mean” value is recorded as 1.33.
For the compound `Cn1nccc1C(=O)C/C(=N/NC(=O)c1ccccc1O)C(F)(F)F` [Compound 1, 2-Hydroxy-benzoic acid [3-oxo-3-(1-methyl-1H-pyrazol-5-yl)-1-trifluoromethyl-prop-(Z)-ylidene]-hydrazide], on Aβ1-42, the IC50 amounted to 17.7 µM.
In the case of `NCCCS(=O)(=O)O` [Alzhemed, 3-amino-1-propanesulfonic acid], in test [2] (20 month open-label extension of Phase II trial, patients with mild AD), the cognitive decline result is reported as “slowed cognitive decline in some patients”. Further, the efficacy entry in test [2] (blinded phase of the Phase II study) was “no efficacy was observed”. In addition, on Aβ1-42 (standard FRET assay conditions of Example 1, FIG. 2), the “blocking of Aβ1-42 monomer assembly into Aβ oligomers” value was “inability of the compound Alzhemed to inhibit Aβ1-42 monomer assembly into Aβ oligomers”.
